Like-named read-outs stand apart in the source and are kept apart here.
Legend:
[1] = test system: Huh-7 cells containing the self-replicating, subgenomic HCV replicon; experiment: HCV replicon assay (luciferase reporter); format: cell-based; conditions: Hepatitis C virus, Huh-7, 72 h
Protocol: Huh-7 cells containing the self-replicating, subgenomic HCV replicon with a stable luciferase (LUC) reporter were cultured in Dulbecco's modified Eagle's medium (DMEM) containing 2 mM L-glutamine and supplemented with 10% heat-inactivated fetal bovine serum (FBS), 1% penicillin-streptomyocin, 1% nonessential amino acids, and 0.5 mg/mL G418.
Determination of 50% inhibitory concentration (EC50) of compounds in HCV replicon cells were performed by the following procedure. On the first day, 5,000 HCV replicon cells were plated per well in a 96-well plate. On the following day, test compounds were solubilized in 100% DMSO to 100× the desired final testing concentration. Each compound was then serially diluted (1:3) up to 9 different concentrations. Compounds in 100% DMSO are reduced to 10% DMSO by diluting 1:10 in cell culture media. The compounds were diluted to 10% DMSO with cell culture media, which were used to dose the HCV replicon cells in 96-well format. The final DMSO concentration was 1%. The HCV replicon cells were incubated at 37° C. for 72 hours. At 72 hours, cells were processed when the cells are still subconfluent. Compounds that reduce the LUC signal are determined by Bright-Glo Luciferase Assay (Promega, Madison, Wis.). % Inhibition was determined for each compound concentration in relation to the control cells (untreated HCV replicon) to calculate the EC50.
Compounds of Formula (I) are active in the replicon assay. The antiviral activity of exemplary compounds is shown in Table 3, where ‘A’ indicates an EC50<1 μM, ‘B’ indicates an EC50≧1 μM and <10 μM, and ‘C’ indicates an EC50≧10 μM and <100 μM.

NS5B570-Con1 (Delta-21) = NS5B570-Con1 (Delta-21) (Hepatitis C virus genotype 1b, UniProt Q9WMX2); experiment: NS5B inhibition assay; format: biochemical, HCV; conditions: IC50, incorporation of tritiated NMP into acid-insoluble RNA, 2 hours at 37° C.
Protocol: The enzyme activity of NS5B570-Con1 (Delta-21) was measured as an incorporation of tritiated NMP into acid-insoluble RNA products. The complementary IRES (cIRES) RNA sequence was used as a template, corresponding to 377 nucleotides from the 3′-end of HCV (−) strand RNA of the Con-1 strain, with a base content of 21% Ade, 23% Ura, 28% Cyt, and 28% Gua. The cIRES RNA was transcribed in vitro using a T7 transcription kit (Ambion, Inc.) and purified using the Qiagen RNeasy maxi kit. HCV polymerase reactions contained 50 nM NS5B570-Con1, 50 nM cIRES RNA, about 0.5 μCi tritiated NTP, 1 μm of competing cold NTP, 20 mM NaCl, 40 mm Tris-HCl (pH 8.0), 4 mm dithiothreitol, and 4 mm MgCl2. Standard reactions were incubated for 2 hours at 37° C., in the presence of increasing concentration of inhibitor. At the end of the reaction, RNA was precipitated with 10% TCA, and acid-insoluble RNA products were filtered on a size exclusion 96-well plate. After washing of the plate, scintillation liquid was added and radio labeled RNA products were detected according to standard procedures with a Trilux Topcount scintillation counter. The compound concentration at which the enzyme-catalyzed rate was reduced by 50% (IC50) was calculated by fitting the data to a non-linear regression (sigmoidal). The IC50 values were derived from the mean of several independent experiments. […]

[2] = test system: HCV genotype 1b HCV replicon harbored in Huh7 cells; experiment: Combination testing in HCV replicon (CalcuSyn CI, MacSynergy II synergy volume); format: cell-based
Protocol: Two or more test compounds were tested in combination with each other using an HCV genotype 1b HCV replicon harbored in Huh7 cells with a stable luciferase (LUC) reporter. Cells were cultured under standard conditions in Dulbecco's modified Eagle's medium (DMEM; Mediatech Inc, Herndon, Va.) containing 10% heat-inactivated fetal bovine serum (FBS; Mediatech Inc, Herndon, Va.) 2 mM L-glutamine, and nonessential amino acids (JRH Biosciences). HCV replicon cells were plated in a 96-well plate at a density of 10^4 cells per well in DMEM with 10% FBS. On the following day, the culture medium was replaced with DMEM containing either no compound as a control, the test compounds serially diluted in the presence of 2% FBS and 0.5% DMSO, or a combination of compound 1a with one or more test compounds serially diluted in the presence of 2% FBS and 0.5% DMSO. The cells were incubated with no compound as a control, with the test compounds, or the combination of compounds for 72 hours. The direct effects of the combination of the test compounds were examined using a luciferase (LUC) based reporter as determined by the Bright-Glo Luciferase Assay (Promega, Madison, Wis.). Dose-response curves were determined for individual compounds and fixed ratio combinations of two or more test compounds.
The effects of test compound combinations were evaluated by two separate methods. In the Loewe additivity model, the experimental replicon data was analyzed by using CalcuSyn (Biosoft, Ferguson, Mo.), a computer program based on the method of Chou and Talalay. The program uses the experimental data to calculate a combination index (CI) value for each experimental combination tested. […]
The second method utilized for evaluating combination effects used a program called MacSynergy II. […] The volumes of synergy (positive volumes) or antagonism (negative volumes) represent the relative quantity of synergism or antagonism per change in the concentrations of the two drugs. […]

| SMILES | EC50 [1] | further results |
| --- | --- | --- |
| C#C[C@@]1(O)[C@H](O)[C@@H](COP(=S)(N[C@@H](C)C(=O)OC(C)C)Oc2ccccc2)O[C@H]1n1ccc(=O)[nH]c1=O (some centres unmarked) [Compound 1a] | < 1000 nM |  |
| C#C[C@@]1(O)[C@H](O)[C@@H](CO[P@@](=S)(N[C@@H](C)C(=O)OC(C)C)Oc2ccccc2)O[C@H]1n1ccc(=O)[nH]c1=O [Compound 1aa] | < 1000 nM |  |
| C#C[C@@]1(O)[C@H](O)[C@@H](CO[P@](=S)(N[C@@H](C)C(=O)OC(C)C)Oc2ccccc2)O[C@H]1n1ccc(=O)[nH]c1=O [Compound 1ab] | < 1000 nM |  |
| C=C[C@@]1(O)[C@H](O)[C@@H](COP(=S)(N[C@@H](C)C(=O)OC(C)C)Oc2ccccc2)O[C@H]1n1ccc(=O)[nH]c1=O (some centres unmarked) [Compound 2a] | 1000 to 10000 nM |  |
| C#C[C@@]1(O)[C@H](O)[C@@H](COP(=S)(N[C@@H](C)C(=O)OC(C)C)Oc2ccccc2)O[C@H]1n1cnc2c(N)ncnc21 (some centres unmarked) [Compound 4a] | < 1000 nM |  |
| C#C[C@@]1(O)[C@H](O)[C@@H](COP(=S)(N[C@@H](C)C(=O)OC(C)C)Oc2ccccc2)O[C@H]1n1cnc2c(=O)[nH]c(N)nc21 (some centres unmarked) [Compound 6a] | 1000 to 10000 nM |  |
| C#C[C@@]1(O)[C@H](O)[C@@H](COP(=S)(N[C@@H](CCSC)C(=O)OC(C)C)Oc2ccccc2)O[C@H]1n1ccc(=O)[nH]c1=O (some centres unmarked) [Compound 7a] | < 1000 nM |  |
| C#C[C@@]1(O)[C@H](O)[C@@H](COP(=S)(N[C@H](C(=O)OC(C)C)C(C)C)Oc2ccccc2)O[C@H]1n1ccc(=O)[nH]c1=O (some centres unmarked) [Compound 8a] | 10000 to 100000 nM |  |
| C#C[C@@]1(O)[C@H](O)[C@@H](COP(=S)(N[C@@H](CC(C)C)C(=O)OC(C)C)Oc2ccccc2)O[C@H]1n1ccc(=O)[nH]c1=O (some centres unmarked) [Compound 9a] | 1000 to 10000 nM |  |
| C#C[C@@]1(O)[C@H](O)[C@@H](COP(=S)(N[C@@H](C)C(=O)OC(C)C)Oc2ccc(F)cc2)O[C@H]1n1ccc(=O)[nH]c1=O (some centres unmarked) [Compound 10a] | < 1000 nM |  |
| C#C[C@@]1(O)[C@H](O)[C@@H](COP(=S)(N[C@@H](C)C(=O)OC(C)C)Oc2ccc(Cl)cc2)O[C@H]1n1ccc(=O)[nH]c1=O (some centres unmarked) [Compound 11a] | < 1000 nM |  |
| C#C[C@@]1(O)[C@H](O)[C@@H](COP(=S)(N[C@@H](C)C(=O)OC(C)C)Oc2ccc(F)c(Cl)c2)O[C@H]1n1ccc(=O)[nH]c1=O (some centres unmarked) [Compound 12a] | < 1000 nM |  |
| C#C[C@@]1(O)[C@H](O)[C@@H](COP(=S)(N[C@@H](C)C(=O)OC(C)C)Oc2cccc3ccccc23)O[C@H]1n1ccc(=O)[nH]c1=O (some centres unmarked) [Compound 13a] | < 1000 nM |  |
| CC#C[C@@]1(O)[C@H](O)[C@@H](COP(=S)(N[C@@H](C)C(=O)OC(C)C)Oc2ccccc2)O[C@H]1n1ccc(=O)[nH]c1=O (some centres unmarked) [Compound 14a] | 1000 to 10000 nM |  |
| CC(C)OC(=O)[C@H](C)NP(=S)(OC[C@H]1O[C@@H](n2ccc(=O)[nH]c2=O)[C@@](O)(C#CI)[C@@H]1O)Oc1ccccc1 (some centres unmarked) [Compound 15a] | < 1000 nM |  |
| C#C[C@@]1(F)[C@H](O)[C@@H](COP(=S)(N[C@@H](C)C(=O)OC(C)C)Oc2ccccc2)O[C@H]1n1ccc(=O)[nH]c1=O (some centres unmarked) [Compound 16a] | 1000 to 10000 nM |  |
| C#C[C@@]1(O)[C@H](O)[C@@H](COP(=S)(N[C@@H](C)C(=O)OC2CCCCC2)Oc2ccccc2)O[C@H]1n1cnc2c(=O)[nH]c(N)nc21 (some centres unmarked) [Compound 17a] | 1000 to 10000 nM |  |
| CCC#C[C@@]1(O)[C@H](O)[C@@H](COP(=S)(N[C@@H](C)C(=O)OC(C)C)Oc2ccccc2)O[C@H]1n1ccc(=O)[nH]c1=O (some centres unmarked) [Compound 18a] | 10000 to 100000 nM |  |
| C#C[C@@]1(O)[C@H](O)[C@@H](COP(=S)(N[C@@H](CCC)C(=O)OC(C)C)Oc2ccccc2)O[C@H]1n1ccc(=O)[nH]c1=O (some centres unmarked) [Compound 19a] | < 1000 nM |  |
| CC(C)C#C[C@@]1(O)[C@H](O)[C@@H](COP(=S)(N[C@@H](C)C(=O)OC(C)C)Oc2ccccc2)O[C@H]1n1ccc(=O)[nH]c1=O (some centres unmarked) [Compound 20a] | 10000 to 100000 nM |  |
| C#C[C@@]1(O)[C@H](O)[C@@H](COP(=S)(N[C@@H](CC)C(=O)OC(C)C)Oc2ccccc2)O[C@H]1n1ccc(=O)[nH]c1=O (some centres unmarked) [Compound 21a] | < 1000 nM |  |
| C#CC1(O)C(O)C(COP(O)(=S)OP(=O)(O)OP(=O)(O)O)OC1n1ccc(=O)[nH]c1=O (centres unmarked) [Compound 23a] |  | IC50 (NS5B570-Con1 (Delta-21)): < 1000 nM |
| C#CC1(O)C(O)C(COP(O)(=S)OP(=O)(O)OP(=O)(O)O)OC1n1ccc(=O)[nH]c1=O (centres unmarked) [Compound 24a] |  | IC50 (NS5B570-Con1 (Delta-21)): < 10000 nM |
| CCC[C@H](NC(=O)[C@@H]1[C@H]2CCC[C@H]2CN1C(=O)[C@@H](NC(=O)[C@@H](NC(=O)c1cnccn1)C1CCCCC1)C(C)(C)C)C(=O)C(=O)NC1CC1 [Compound 1001, Telaprevir] |  | Synergy Volume [2]: 104 μM^2% |
| CC1CCC(C(=O)N(c2cc(C#CC(C)(C)C)sc2C(=O)O)C2CCC(O)CC2)CC1 (centres unmarked) [Compound 3003] |  | Synergy Volume [2]: 32 μM^2% |
| CC(C)OC(=O)C(C)NP(=S)(OC[C@H]1O[C@@H](n2ccc(=O)[nH]c2=O)[C@](C)(O)[C@@H]1O)Oc1ccccc1 (some centres unmarked) [Compound 6002] |  | Synergy Volume ([2]; combination of compound 1a with the listed compound, 72 hours, MacSynergy II, Bliss independence, 25-100 synergistic, >100 strong synergistic): 29 μM^2% |

Source: US8980865B2, “Substituted nucleotide analogs” (priority 2011, dated 2015)
